The record followed here is patent US10414769B2, “5,8-dimethyl-9-phenyl-5,8-dihydro-6H-pyrazolo[3,4-h]quinazolin-2-yl)-(1H-pyrazol-3-yl)-amines as IGF-1R/IR inhibitors” (Boehringer Ingelheim International GmbH, priority 2015, dated 2019).

What all share (format): biochemical
One test has as its target T1, MYLK2 (skMLCK) (Homo sapiens, UniProt Q9H1R3).
T1 construct: purchased Life Technologies PV 3757
The test can be described thus: Z'-LYTE kinase selectivity assay MYLK2. The source says: (§1) In order to compare the kinase selectivity of compounds (I) according to the invention with known prior art compounds the commercially provided SelectScreen® Kinase Profiling Service (Z′-LYTE®) was used (Life Technologies GmbH, Darmstadt, Germany) to investigate the ability of the compounds to inhibit a number of different, representatively selected human kinases. Further details regarding this service are available on the Life Technologies website at
(§2) The Z′-LYTE® biochemical assay employs a fluorescence-based, coupled-enzyme format and is based on the differential sensitivity of phosphorylated and non-phosphorylated peptides to proteolytic cleavage. The peptide substrate is labeled with two fluorophores—one at each end—that make up a FRET pair.
(§3) In the primary reaction, the kinase transfers the gamma-phosphate of ATP to a single tyrosine, serine or threonine residue in a synthetic FRET-peptide. In the secondary reaction, a site-specific protease recognizes and cleaves non-phosphorylated FRET-peptides. Phosphorylation of FRET-peptides suppresses cleavage by the Development Reagent. Cleavage disrupts FRET between the donor (i.e., coumarin) and acceptor (i.e., fluorescein) fluorophores on the FRET-peptide, whereas uncleaved, phosphorylated FRET-peptides maintain FRET. A ratiometric method, which calculates the ratio (the Emission Ratio) of donor emission to acceptor emission after excitation of the donor fluorophore at 400 nm, is used to quantitate reaction progress, as shown in the equation below.
(§4) The Test Compounds are screened at 1 μM.
The 2×MYLK2 (skMLCK) (# PV 3757)/Ser/Thr 13 (Z′-LYTE® Kinase Assay Kit—Ser/Thr 13 Peptide, # PV 3793) mixture is prepared in 50 mM HEPES pH 7.5, 0.01% BRIJ-35, 10 mM MgCl2, 1 mM EGTA, 4 mM CaCl2, 800 U/mL Calmodulin, 0.02% NaN3. The final 10 μL Kinase Reaction consists of 6.71-48.9 ng MYLK2 (skMLCK) and 2 μM Ser/Thr 13 in 50 mM HEPES pH 7.5, 0.01% BRIJ-35, 10 mM MgCl2, 1 mM EGTA, 2 mM CaCl2, 400 U/mL Calmodulin, 0.01% NaN3. After the 1 hour Kinase Reaction incubation, 5 μL of a 1:1024 dilution of Development Reagent A is added.

A further test addresses T2, PDK1 Direct (Homo sapiens, UniProt O15530).
T2 sequence (O15530 1-556): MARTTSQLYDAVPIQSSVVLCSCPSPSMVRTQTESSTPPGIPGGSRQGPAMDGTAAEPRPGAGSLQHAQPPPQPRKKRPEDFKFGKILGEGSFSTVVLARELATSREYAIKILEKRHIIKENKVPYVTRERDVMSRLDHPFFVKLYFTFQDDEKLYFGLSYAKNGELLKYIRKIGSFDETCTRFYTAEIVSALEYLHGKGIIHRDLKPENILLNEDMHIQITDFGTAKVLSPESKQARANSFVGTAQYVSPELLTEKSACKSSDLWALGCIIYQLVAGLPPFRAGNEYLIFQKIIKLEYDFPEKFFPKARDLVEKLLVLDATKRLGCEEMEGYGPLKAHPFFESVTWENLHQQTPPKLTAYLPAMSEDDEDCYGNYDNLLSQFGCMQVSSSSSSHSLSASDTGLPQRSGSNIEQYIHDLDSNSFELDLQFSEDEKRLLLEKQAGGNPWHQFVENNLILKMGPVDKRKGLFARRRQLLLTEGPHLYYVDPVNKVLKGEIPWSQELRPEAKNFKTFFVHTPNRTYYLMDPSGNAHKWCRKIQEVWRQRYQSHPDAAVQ
Briefly: Z'-LYTE kinase selectivity assay PDK1.
Source text: as §1, §2, §3, §4
The 2×PDK1 Direct/Ser/Thr 07 (Z′-LYTE® Kinase Assay Kit—Ser/Thr 7 Peptide, # PV 3180) mixture is prepared in 50 mM Tris pH 8.5, 0.01% BRIJ-35, 10 mM MgCl2, 1 mM EGTA, 0.02% NaN3. The final 10 μL Kinase Reaction consists of 5.04-29.4 ng PDK1 Direct and 2 μM Ser/Thr 07 in 50 mM Tris/HEPES pH 8.0, 0.01% BRIJ-35, 10 mM MgCl2, 1 mM EGTA, 0.01% NaN3. After the 1 hour Kinase Reaction incubation, 5 μL of a 1:65000 dilution of Development Reagent A is added.

A further test addresses T3, CDK2/cyclin A (Homo sapiens, UniProt P24941).
T3 construct: purchased Life Technologies PV 3267
Briefly: Z'-LYTE kinase selectivity assay CDK2/cyclin A. The following applies: read-out: CDK2/CYCLINA % inhibition.
Source text: as §1, §2, §3, §4
The 2×CDK2/cyclin A (# PV 3267)/Ser/Thr 12 (Z′-LYTE® Kinase Assay Kit—Ser/Thr 12 Peptide, # PV 3673) mixture is prepared in 50 mM HEPES pH 7.5, 0.01% BRIJ-35, 10 mM MgCl2, 1 mM EGTA. The final 10 μL Kinase Reaction consists of 1.22-10.3 ng CDK2/cyclin A and 2 μM Ser/Thr 12 in 50 mM HEPES pH 7.5, 0.01% BRIJ-35, 10 mM MgCl2. 1 mM EGTA. After the 1 hour Kinase Reaction incubation, 5 μL of a 1:4096 dilution of Development Reagent A is added.

For the compound `CC(O)CN1CCN(CCn2ccc(Nc3ncc4c(n3)-c3c(nn(C)c3-c3ccccc3)C[C@H]4C)n2)CC1` (stereo partly drawn) [Compound I-7], the inhibition at 1 µM at MYLK2 (skMLCK) amounted to 23%; at PDK1 Direct it was 3%; at CDK2/cyclin A, 74%.

As for `C[C@@H]1Cc2nn(C)c(-c3ccccc3)c2-c2nc(Nc3ccn(CCN4CCN(C)CC4)n3)ncc21` [Compound I-1], the inhibition at 1 µM was 16% against MYLK2 (skMLCK), -2% on PDK1 Direct and 72% at CDK2/cyclin A.

As for `C[C@@H]1Cc2nn(C)c(-c3ccccc3)c2-c2nc(Nc3ccn(CCN4CCN(CC(C)(C)O)CC4)n3)ncc21` [Compound I-3], the inhibition at 1 µM at MYLK2 (skMLCK) turned out to be 12%; on PDK1 Direct, 9%; on CDK2/cyclin A it was 66%.

Consider `C[C@@H]1Cc2nn(C)c(-c3ccccc3)c2-c2nc(Nc3ccn(CCN4CCN(CC(=O)OC5CCOCC5)CC4)n3)ncc21` [Compound I-8], for which the values for the inhibition at 1 µM against MYLK2 (skMLCK), against PDK1 Direct and on CDK2/cyclin A were 13%, 5% and 49%, respectively.

Turning to `COCCN1CCN(CCn2ccc(Nc3ncc4c(n3)-c3c(nn(C)c3-c3ccccc3)C[C@H]4C)n2)CC1` [Compound I-11], the values for the inhibition at 1 µM against MYLK2 (skMLCK), against PDK1 Direct and on CDK2/cyclin A were 16%, 20% and 53%, respectively.

With `C[C@@H]1Cc2nn(C)c(-c3ccccc3)c2-c2nc(Nc3ccn(CCN4CCOCC4)n3)ncc21` [Compound I-2], the results for the inhibition at 1 µM on MYLK2 (skMLCK), against PDK1 Direct and on CDK2/cyclin A were 3%, 1% and 56%, respectively.

With `C[C@@H]1Cc2nn(C)c(-c3ccccc3)c2-c2nc(Nc3ccn(CCN4CCN(CC5CCCO5)CC4)n3)ncc21` (stereo partly drawn) [Compound I-9], the inhibition at 1 µM against MYLK2 (skMLCK) was determined as 10%; against PDK1 Direct, 6%; at CDK2/cyclin A, 63%.
